According to patent publication US5300298A, “Methods of treating obesity with purine related compounds” (The Pennsylvania Research Corporation, priority 1992, dated 1994):

What was measured:
Al adenosine receptor [1] = assay: Acute subcutaneous injection of BW1433, serum glycerol (whole body lipolysis); format: in vivo, Sprague Dawley rats; lean and obese Zucker rats; conditions: Sprague Dawley rats, 18 hour fasted, 60 min after subcutaneous injection, 0-10 mg/Kg
Procedure: FIG. 1: Serum glycerol levels 60 min after a subcutaneous injection of BW1433 (0-10 mg/Kg) in Sprague Dawley rats (SD) and lean and obese Zucker rats. Each point represents 3-4 animals in the case of SD rats and 3-10 or 4-10 in the case of lean and obese Zuckers, respectively.
My initial studies were carried out following acute subcutaneous injections of the drug into male Sprague Dawley rats and into lean and into obese Zucker rats. Blood samples (100 microliter) were taken from the tail of the rats and measurements made of serum glycerol^6. Glycerol is an end product of lipolysis and thus an excellent indicator of the rate of whole body lipolysis. […] I discovered that in the absence of the Formula I compound tested, serum glycerol levels only differ slightly when comparing lean and obese animals. Since there is 3-4 times more fat in the obese animal this is good evidence for sluggish lipolysis per g of fat in the obese. The obese animals however seem to mobilize the fat at an earlier time after removal of their food supply (Table 1), since after 6 hours of fasting the obese serum glycerol levels are much higher than the lean.
Next, I studied the effect of subcutaneous injections of BW1433 in 18 hour fasted animals. The results, shown in FIG. 1, support my initial postulation, that the Al adenosine receptor may be particularly active in obese animals. […]

Al adenosine receptor [2] = assay: Blockade by BW1433 of receptors activated with the agonist N-6 phenylisopropyladenosine (PIA), subcutaneous; format: in vivo, rat (Sprague Dawley, lean Zucker, obese Zucker); conditions: all three strains of rat
Procedure: Next, I studied the effect of subcutaneous injections of BW1433 in 18 hour fasted animals. The results, shown in FIG. 1, support my initial postulation, that the Al adenosine receptor may be particularly active in obese animals. […] To distinguish between these possibilities, the agonist N-6 phenylisopropyladenosine (PIA) was injected subcutaneously either alone or in combination with BW1433.

[3] = system: lean and obese Zucker rats; assay: Daily serum glycerol during chronic administration of BW1433 (Alzet mini osmotic pumps); format: in vivo
Procedure: FIG. 2: Daily serum glycerol levels during chronic administration of BW1433 in lean (L) and obese (F) Zucker rats. In the no drug group (V) n=5, in the D1 group (0.2 mg/Kg/hr) n=5, and in the D2 group (0.4 mg/Kg/hr) n=4.
(§1) Next, I studied the effect of chronic treatment with BW1433. For this purpose I employed 2 ml Alzet mini osmotic pumps. Each pump was loaded with 2 ml of a solution containing BW1433 or with vehicle (aqueous solution adjusted to pH II). The amount of BW1433 was adjusted so that the pump delivered either zero, 0.2 mg or 0.4 mg/Kg/hour to each animal. On the first day the animals had the pumps implanted and were given a priming (2 mg/Kg or 4 mg/Kg) dose of the antagonist. Blood was taken prior to surgery and six hours after the animals were removed from their food supply. On each subsequent day animals had free access to food and water overnight, then their food removed for six hours, and a blood sample taken.
(§2) In addition to taking blood samples for glycerol analysis, each animal was weighed every day for seven days. After seven days the animals were fasted overnight and a glucose tolerance test given The animals were then sacrificed and 1 ml blood sample taken for serum insulin and serum BW1433 determination drug levels. Insulin levels were measured with RIA kit (Diagnostic Products) and BW1433 levels were measured fluorometrically after HPLC separation at Burroughs Wellcome, Research Triangle Park, North Carolina. […] Nonetheless, when glucose tolerance curves were administered on day 7, drug-related differences could still be seen in all animals studied. […] This is illustrated more clearly in FIG. 4 where the area under the glucose tolerance curve is shown as a bar for each of the 6 groups of animals. […] FIG. 5 is a chart of the change in weight of treated and untreated lean and obese animals. […] The effect on weight change in each case was maximal at day 3, the day when the glycerol values peaked. Based on these remarkable results, the compounds of Formula I can be administered to obese warm-blooded animals as anti-obesity agents, or administered to farm animals to advantageously increase the ratio of muscle mass to fat therein.

[4] = system: lean and obese Zucker rats; assay: Glucose tolerance test after seven days of BW1433 administration; format: in vivo
Procedure: FIG. 3: Glucose tolerance test after seven days of BW1433 administration. Animals were fasted overnight before injection of 1.25 g/Kg glucose and samples taken 15, 30, 60 and 120 min for glucose determinations. The conditions are the same as those described in legend to FIG. 2 (Cont=V).
FIG. 4: A bar graph representing the area under the glucose tolerance curves of FIG. 3.
as §1
as §2, with “Based on these remarkable results, the compounds of Formula I can be administered to obese warm-blooded animals as anti-obesity agents, or administered to farm animals to advantageously increase the ratio of muscle mass to fat therein.” left out

[5] = Body weights during chronic administration of BW1433; format: in vivo, Zucker rats
Procedure: FIG. 5: Body weights of lean and obese Zucker rats during chronic administration of BW1433. The data are presented as a % of day 0 weight. Day 0 represents when the Alzet mini-pumps were implanted. The conditions are the same as those described in the legend to FIG. 2.
as §1
as §2, with “Based on these remarkable results, the compounds of Formula I can be administered to obese warm-blooded animals as anti-obesity agents, or administered to farm animals to advantageously increase the ratio of muscle mass to fat therein.” left out

[6] = Serum BW1433 level after chronic administration (fluorometric after HPLC separation); format: in vivo, Zucker rats; conditions: for concentration at 168 h: rat, serum, day 7
Procedure: as §2, with “Next, I studied the effect of chronic treatment with BW1433. For this purpose I employed 2 ml Alzet mini osmotic pumps. Each pump was loaded with 2 ml of a solution containing BW1433 or with vehicle (aqueous solution adjusted to pH II). The amount of BW1433 was adjusted so that the pump delivered either zero, 0.2 mg or 0.4 mg/Kg/hour to each animal. On the first day the animals had the pumps implanted and were given a priming (2 mg/Kg or 4 mg/Kg) dose of the antagonist. Blood was taken prior to surgery and six hours after the animals were removed from their food supply. On each subsequent day animals had free access to food and water overnight, then their food removed for six hours, and a blood sample taken. In addition” for “In addition”, “fat therein. […] The obese animals apparently have lower extracellular fluid volume per Kg body weight.” for “fat therein.”

[7] = system: lean and obese (fatty) Zucker rats; assay: Serum insulin after chronic administration of BW1433 (RIA kit); format: in vivo
Procedure: as §1, §2
The obese animals apparently have lower extracellular fluid volume per Kg body weight.

[8] = cited from earlier work

CCCn1c(=O)c2nc(-c3ccc(/C=C/C(=O)O)cc3)[nH]c2n(CCC)c1=O [BW1433, (E)-4-(1,2,3,6-tetrahydro-2,6-dioxo-1,3-dipropyl-9H-purin-8-yl)cinnamic acid]
effect on serum glycerol (Al adenosine receptor [1]): little or no effect
dose at which receptors could be effectively blocked (Al adenosine receptor [2]): 1 to 2 mg/kg
day when the glycerol values peaked ([3]; chronic): 3 days
serum levels on day 7 (adaptation to the drug) ([3]; day 7, chronic): all serum levels were similar on day 7
effect on serum glycerol level ([3]; lean Zucker rats, chronic 0.2 or 0.4 mg/Kg/hour): did not effect the glycerol level
serum glycerol level, higher dose (0.4 mg/Kg) versus lower dose (0.2 mg/Kg) ([3]; obese Zucker rats, chronic): higher in the group with the higher dose of drug
serum glycerol level versus controls ([3]; obese Zucker rats, chronic 0.2 or 0.4 mg/Kg/hour): much higher levels of glycerol than the controls
glucose tolerance ([4]; day 7, 1.25 g/Kg glucose): improved glucose tolerance
area under the glucose tolerance curves ([4]; lean and obese (fatty) animals, FIG. 4): does reduce the area under these curves
area under the glucose tolerance curve ([4]; lean and obese Zucker rats, 1.25 g/Kg glucose intraperitoneal, day 7, dose dependence): smaller, the larger the dose
growth or weight gain ([5]; lean Zucker rats): increased growth or weight gain
day of maximal effect on weight change ([5]; lean and obese): 3 days
growth or weight gain ([5]; obese Zucker rats): decreased growth or weight gain
serum drug level, obese versus lean ([6]; obese compared with lean Zucker rats): somewhat higher levels of drug than the lean
concentration at 168 h ([6]; 0.2 mg/kg/h, Fatty, +BW1433, 0.2 mg/kg (pump, per hour)): 205 ± 22 ng/mL
concentration at 168 h ([6]; 0.2 mg/kg/h, Lean, +BW1433, 0.2 mg/kg (pump, per hour)): 102 ± 20 ng/mL
concentration at 168 h ([6]; 0.4 mg/kg/h, Fatty, +BW1433, 0.4 mg/kg (pump, per hour)): 624 ± 80 ng/mL
concentration at 168 h ([6]; 0.4 mg/kg/h, Lean, +BW1433, 0.4 mg/kg (pump, per hour)): 366 ± 98 ng/mL
serum insulin ([7]; Fatty, +BW1433, 0.2 mg/kg (vehicle 54.06 ± 9.49)): 52.81 ± 4.82 micro lu/ml
serum insulin ([7]; Fatty, +BW1433, 0.4 mg/kg (vehicle 54.06 ± 9.49)): 58.06 ± 6.52 micro lu/ml
serum insulin ([7]; Lean, +BW1433, 0.2 mg/kg (vehicle 7.92 ± 0.92)): 11.63 ± 1.62 micro lu/ml
serum insulin ([7]; Lean, +BW1433, 0.4 mg/kg (vehicle 7.92 ± 0.92)): 10.67 ± 1.50 micro lu/ml
oral administration and absorption [8]: can be administered and absorbed orally
